Data: patent US11000033B2, “Ketone or oxime compound, and herbicide” (NISSAN CHEMICAL CORPORATION, priority 2014, dated 2021)

Key:
Format in all cases: in vivo
Avena fatua = test: Test Example 4: herbicidal effect by soil treatment (symbol I)
Summary of the method: (§1)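 Seeds were sown in sterilized diluvial soil, covered with about 1.5 cm of soil, and the soil surface was sprayed with a water-diluted emulsion of the compound at a predetermined rate. Plants grew in a greenhouse at 25° C. to 30° C.; effects were scored visually 3 weeks after application.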

Alopecurus myosuroides [1] = test: Test Example 4: herbicidal effect by soil treatment (symbol J)
Summary of the method: as §1

Veronica persica = test: Test Example 4: herbicidal effect by soil treatment (symbol R)
Summary of the method: as §1

Alopecurus myosuroides [2] = test: Test Example 5: herbicidal effect by foliage application, plastic box (symbol J); conditions: 320 g/ha, 3 weeks after application
Summary of the method: (§2)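 Leaf-applied emulsion, water-diluted to a preset herbicide dose, on two-week-old seedlings raised in a 25° C. to 30° C. greenhouse; injury rated at 3 weeks using earlier criteria.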

Apera spica-venti = test: Test Example 4: herbicidal effect by soil treatment (symbol L)
Summary of the method: as §1

Digitaria ciliaris = test: Test Example 5: herbicidal effect by foliage application, plastic box (symbol F); conditions: 320 g/ha, 3 weeks after application
Summary of the method: as §2

soybean = test: Test Example 4: effect on crop by soil treatment (symbol d); conditions: for d: soybean, effect grade on crop: 320 g/ha
Summary of the method: (§3)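 Plants are raised in a greenhouse (25° C. to 30° C.) from spot-sown seed, which sits under about 1.5 cm of sterilized diluvial soil in a box shared with weed species.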

Chenopodium album = test: Test Example 5: herbicidal effect by foliage application, plastic box (symbol O); conditions: 320 g/ha, 3 weeks after application
Summary of the method: as §2

Setaria viridis = test: Test Example 4: herbicidal effect by soil treatment (symbol G)
Summary of the method: as §1

Scirpus juncoides = test: Test Example 1: herbicidal activity, application before weed generation in submerged conditions (symbol B); conditions: application herbicide amount 320 g/ha
Summary of the method: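 Application before weed emergence: an aqueous dilution of the emulsion formulation was poured onto the surface of 4 cm-deep floodwater on the day of sowing. Effect was judged after 3 weeks (greenhouse, 25–30 °C).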

rice = test: Test Example 4: effect on crop by soil treatment (symbol b); conditions: for b: directly sowed rice plant, effect grade on crop: 320 g/ha
Summary of the method: as §3

Stellaria media = test: Test Example 4: herbicidal effect by soil treatment (symbol P)
Summary of the method: as §1

[3] = tested on: Echinochloa crus-galli var. crus-galli; test: Test Example 5: herbicidal effect by foliage application, plastic box (symbol H); conditions: 320 g/ha, 3 weeks after application
Summary of the method: as §2

rice plant = test: Test Example 5: effect on crop by foliage application, plastic box (symbol b); conditions: 320 g/ha, 3 weeks after application
Summary of the method: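 Greenhouse culture at 25° C. to 30° C. followed spot-like sowing into sterilized diluvial soil, with seed covered by roughly 1.5 cm of soil.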

Monochoria vaginalis = test: Test Example 2: herbicidal activity, application during weed generation in submerged conditions (symbol C); conditions: Table 23; application herbicide amount 320 g/ha; grade 0-5 by criteria of Test Example 1
Summary of the method: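 Read-out: herbicidal effect on each species rated on a visual scale 3 weeks after treatment. Plants were raised together from seed in flooded alluvial soil (4 cm water) at 25° C. to 30° C. and treated at one to two leaves by water-surface application of diluted emulsion.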

wheat = test: Test Example 4: effect on crop by soil treatment (symbol e); conditions: for e: wheat, effect grade on crop: 320 g/ha
Summary of the method: as §3

Abutilon theophrasti = test: Test Example 4: herbicidal effect by soil treatment (symbol M)
Summary of the method: as §1

[4] = application herbicide amount 320 g/ha

Row | SMILES | I: Avena fatua, herbicidal effect grade (Avena fatua; 320 g/ha) | J: Alopecurus myosuroides, herbicidal effect grade (Alopecurus myosuroides [1]; 320 g/ha) | R: Veronica persica, herbicidal effect grade (Veronica persica; 320 g/ha) | J: Alopecurus myosuroides, herbicidal effect (criteria 0-5) (Alopecurus myosuroides [2]) | L: Apera spica-venti, herbicidal effect grade (Apera spica-venti; 320 g/ha) | F: Digitaria ciliaris, herbicidal effect (criteria 0-5) (Digitaria ciliaris) | d: soybean, effect grade on crop (soybean) | O: Chenopodium album, herbicidal effect (criteria 0-5) (Chenopodium album) | G: Setaria viridis, herbicidal effect grade (Setaria viridis; 320 g/ha) | Herbicidal effect grade, B: Scirpus juncoides (Scirpus juncoides) | b: directly sowed rice plant, effect grade on crop (rice) | P: Stellaria media, herbicidal effect grade (Stellaria media; 320 g/ha) | H: Echinochloa crus-galli var. crus-galli, herbicidal effect (criteria 0-5) [3] | b: directly sowed rice plant, effect on crop (criteria 0-5) (rice plant) | Herbicidal effect grade, C: Monochoria vaginalis (Monochoria vaginalis) | e: wheat, effect grade on crop (wheat) | M: Abutilon theophrasti, herbicidal effect grade (Abutilon theophrasti; 320 g/ha) | J: Alopecurus myosuroides, herbicidal effect grade (Alopecurus myosuroides [2]) | F: Digitaria ciliaris, herbicidal effect grade (Digitaria ciliaris) | O: Chenopodium album, herbicidal effect grade (Chenopodium album) | also measured
1 | CCCCCCCCS(=O)(=O)OC1=C(c2c(C)cc(C)cc2C)C(=O)C(CC(C)=NOC)C1 (stereo not shown) [1-107] | 0 (Herbicidal ratio of 5% or lower (almost no effect)) | 5 (Herbicidal ratio of 90% or more (almost completely withered)) | 0 (Herbicidal ratio of 5% or lower (almost no effect)) | 5 (Herbicidal ratio of 90% or more (almost completely withered)) | 5 (Herbicidal ratio of 90% or more (almost completely withered)) | 4 (Herbicidal ratio of 70% or higher and lower than 90%) | 0 (Herbicidal ratio of 5% or lower (almost no effect)) | 0 (Herbicidal ratio of 5% or lower (almost no effect)) | 3 (Herbicidal ratio of 40% or higher and lower than 70%) | 4 (Herbicidal ratio of 70% or higher and lower than 90%) | 5 (Herbicidal ratio of 90% or more (almost completely withered)) | 0 (Herbicidal ratio of 5% or lower (almost no effect)) | 5 (Herbicidal ratio of 90% or more (almost completely withered)) | 5 (Herbicidal ratio of 90% or more (almost completely withered)) | 0 (Herbicidal ratio of 5% or lower (almost no effect)) | 0 (Herbicidal ratio of 5% or lower (almost no effect)) | 0 (Herbicidal ratio of 5% or lower (almost no effect)) | – | – | – | –
2 | CC(CC1CC(O)=C(c2c(C)cc(C)cc2C)C1=O)=NOCc1ccccc1Cl (stereo not shown) [1-113] | 3 (Herbicidal ratio of 40% or higher and lower than 70%) | 3 (Herbicidal ratio of 40% or higher and lower than 70%) | 0 (Herbicidal ratio of 5% or lower (almost no effect)) | 4 (Herbicidal ratio of 70% or higher and lower than 90%) | 5 (Herbicidal ratio of 90% or more (almost completely withered)) | 5 (Herbicidal ratio of 90% or more (almost completely withered)) | 0 (Herbicidal ratio of 5% or lower (almost no effect)) | 2 (Herbicidal ratio of 20% or higher and lower than 40%) | 0 (Herbicidal ratio of 5% or lower (almost no effect)) | 4 (Herbicidal ratio of 70% or higher and lower than 90%) | 2 (Herbicidal ratio of 20% or higher and lower than 40%) | 0 (Herbicidal ratio of 5% or lower (almost no effect)) | 4 (Herbicidal ratio of 70% or higher and lower than 90%) | 4 (Herbicidal ratio of 70% or higher and lower than 90%) | 0 (Herbicidal ratio of 5% or lower (almost no effect)) | 0 (Herbicidal ratio of 5% or lower (almost no effect)) | 0 (Herbicidal ratio of 5% or lower (almost no effect)) | – | – | – | –
3 | CCC(CC1CC(O)=C(c2c(C)cc(-c3ccccc3)cc2OC)C1=O)=NOC (mixture of isomers) [13-004] | – | – | – | – | – | – | – | – | – | – | – | – | – | – | 4 (Herbicidal ratio of 70% or higher and lower than 90%) | – | – | 5 (Herbicidal ratio of 90% or more (almost completely withered)) | 5 (Herbicidal ratio of 90% or more (almost completely withered)) | 4 (Herbicidal ratio of 70% or higher and lower than 90%) | I: Avena fatua, herbicidal effect grade (Avena fatua; [4]): 3 (Herbicidal ratio of 40% or higher and lower than 70%); J: Alopecurus myosuroides, herbicidal effect grade (Alopecurus myosuroides [1]; [4]): 5 (Herbicidal ratio of 90% or more (almost completely withered)); R: Veronica persica, herbicidal effect grade (Veronica persica; [4]): 3 (Herbicidal ratio of 40% or higher and lower than 70%); L: Apera spica-venti, herbicidal effect grade (Apera spica-venti; [4]): 5 (Herbicidal ratio of 90% or more (almost completely withered)); d: soybean, effect on crop grade (soybean; [4]): 1 (Herbicidal ratio of 5% or higher and lower than 20%); G: Setaria viridis, herbicidal effect grade (Setaria viridis; [4]): 5 (Herbicidal ratio of 90% or more (almost completely withered)); B (Scirpus juncoides) herbicidal effect grade (Scirpus juncoides): 5 (Herbicidal ratio of 90% or more (almost completely withered)); b: directly sowed rice plant, effect on crop grade (rice; [4]): 5 (Herbicidal ratio of 90% or more (almost completely withered)); P: Stellaria media, herbicidal effect grade (Stellaria media; [4]): 1 (Herbicidal ratio of 5% or higher and lower than 20%); H: Echinochloa crus-galli var. crus-galli, herbicidal effect grade [3]: 5 (Herbicidal ratio of 90% or more (almost completely withered)); b: directly sowed rice plant, effect on crop grade (rice plant): 5 (Herbicidal ratio of 90% or more (almost completely withered)); e: wheat, effect on crop grade (wheat; [4]): 5 (Herbicidal ratio of 90% or more (almost completely withered)); M: Abutilon theophrasti, herbicidal effect grade (Abutilon theophrasti; [4]): 0 (Herbicidal ratio of 5% or lower (almost no effect))
4 | CON=C(CC1CC(O)=C(c2c(C)cc(-c3ccccc3)cc2C)C1=O)C1CC1 (mixture of isomers) [9-028] | – | – | – | – | – | – | – | – | – | – | – | – | – | – | 4 (Herbicidal ratio of 70% or higher and lower than 90%) | – | – | 5 (Herbicidal ratio of 90% or more (almost completely withered)) | 5 (Herbicidal ratio of 90% or more (almost completely withered)) | 2 (Herbicidal ratio of 20% or higher and lower than 40%) | Herbicidal effect grade, I: Avena fatua (Avena fatua; [4]): 3 (Herbicidal ratio of 40% or higher and lower than 70%); Herbicidal effect grade, J: Alopecurus myosuroides (Alopecurus myosuroides [1]; [4]): 5 (Herbicidal ratio of 90% or more (almost completely withered)); Herbicidal effect grade, R: Veronica persica (Veronica persica; [4]): 0 (Herbicidal ratio of 5% or lower (almost no effect)); Herbicidal effect grade, L: Apera spica-venti (Apera spica-venti; [4]): 5 (Herbicidal ratio of 90% or more (almost completely withered)); Effect on crop grade, d: soybean (soybean; [4]): 0 (Herbicidal ratio of 5% or lower (almost no effect)); Herbicidal effect grade, G: Setaria viridis (Setaria viridis; [4]): 5 (Herbicidal ratio of 90% or more (almost completely withered)); B (Scirpus juncoides) herbicidal effect grade (Scirpus juncoides): 5 (Herbicidal ratio of 90% or more (almost completely withered)); Effect on crop grade, b: directly sowed rice plant (rice; [4]): 3 (Herbicidal ratio of 40% or higher and lower than 70%); Herbicidal effect grade, P: Stellaria media (Stellaria media; [4]): 0 (Herbicidal ratio of 5% or lower (almost no effect)); H: Echinochloa crus-galli var. crus-galli, herbicidal effect grade [3]: 5 (Herbicidal ratio of 90% or more (almost completely withered)); b: directly sowed rice plant, effect on crop grade (rice plant): 5 (Herbicidal ratio of 90% or more (almost completely withered)); Effect on crop grade, e: wheat (wheat; [4]): 3 (Herbicidal ratio of 40% or higher and lower than 70%); Herbicidal effect grade, M: Abutilon theophrasti (Abutilon theophrasti; [4]): 0 (Herbicidal ratio of 5% or lower (almost no effect))
5 | COc1ccc(CON=C(C)CC2CC(O)=C(c3c(C)cc(C)cc3C)C2=O)cc1 (stereo not shown) [1-112] | 3 (Herbicidal ratio of 40% or higher and lower than 70%) | 5 (Herbicidal ratio of 90% or more (almost completely withered)) | 0 (Herbicidal ratio of 5% or lower (almost no effect)) | 5 (Herbicidal ratio of 90% or more (almost completely withered)) | 5 (Herbicidal ratio of 90% or more (almost completely withered)) | 5 (Herbicidal ratio of 90% or more (almost completely withered)) | 0 (Herbicidal ratio of 5% or lower (almost no effect)) | 3 (Herbicidal ratio of 40% or higher and lower than 70%) | 5 (Herbicidal ratio of 90% or more (almost completely withered)) | 5 (Herbicidal ratio of 90% or more (almost completely withered)) | 5 (Herbicidal ratio of 90% or more (almost completely withered)) | 0 (Herbicidal ratio of 5% or lower (almost no effect)) | 5 (Herbicidal ratio of 90% or more (almost completely withered)) | 5 (Herbicidal ratio of 90% or more (almost completely withered)) | 4 (Herbicidal ratio of 70% or higher and lower than 90%) | 0 (Herbicidal ratio of 5% or lower (almost no effect)) | 0 (Herbicidal ratio of 5% or lower (almost no effect)) | – | – | – | –
